# Assays:
# AR NTD = molecular target: T1, AR NTD (Homo sapiens, UniProt P10275); test: Transactivation of AR NTD (AR-(1–558)-Gal4 DBD, 5xGal4UAS-TATA-luciferase) in LNCaP cells; assay type: cell-based; settings: for IL-6-induced transactivation of AR NTD: 20 μM SINT1 or 25 μM EPI-002, 50 ng/ml IL-6 24 h; for forskolin-induced transactivation of AR NTD: 20 μM SINT1 or 25 μM EPI-002, 50 μM forskolin 24 h
# T1 construct: expression vector for AR NTD encoding amino acids 1–558 fused to the Gal4 DBD; expressed in transfected cells; host or cells: LNCaP
# T1 sequence (P10275 1-558): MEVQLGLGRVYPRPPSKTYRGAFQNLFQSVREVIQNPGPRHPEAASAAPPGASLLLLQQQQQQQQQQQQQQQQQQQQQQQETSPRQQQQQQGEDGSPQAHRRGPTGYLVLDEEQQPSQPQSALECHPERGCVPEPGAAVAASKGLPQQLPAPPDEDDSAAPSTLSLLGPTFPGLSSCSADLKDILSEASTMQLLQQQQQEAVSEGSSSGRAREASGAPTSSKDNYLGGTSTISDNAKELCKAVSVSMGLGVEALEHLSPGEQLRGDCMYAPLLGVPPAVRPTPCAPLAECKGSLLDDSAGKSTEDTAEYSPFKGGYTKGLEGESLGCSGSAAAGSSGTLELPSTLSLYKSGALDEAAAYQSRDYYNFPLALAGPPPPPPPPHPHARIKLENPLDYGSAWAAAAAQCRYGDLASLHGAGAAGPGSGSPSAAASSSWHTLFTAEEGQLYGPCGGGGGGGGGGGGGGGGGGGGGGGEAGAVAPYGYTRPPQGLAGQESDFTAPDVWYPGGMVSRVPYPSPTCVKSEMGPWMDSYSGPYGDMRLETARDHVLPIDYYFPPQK
# Method: LNCaP cells were co-transfected with 5xGal4UAS-TATA-luciferase and AR-(1–558)-Gal4 DBD prior to pretreatment with 20 μM SINT1 or 25 μM EPI-002, which binds to the AR NTD to block AR transcriptional activity. NTD activity was induced by incubation with 50 μM forskolin or 50 ng/ml IL-6 for an additional 24 h ([7], [8]).
# To test whether SINT1 can inhibit transactivation of AR NTD, LNCaP cells were co-transfected with an expression vector for AR NTD encoding amino acids 1–558 fused to the Gal4 DBD and a reporter construct with Gal4 DBD-binding sites. Transactivation of AR NTD is induced by forskolin or IL-6 ([8], [14]).
# LNCaP95 cells = test: Cell proliferation (BrdU incorporation), LNCaP95; assay type: cell-based; settings: 48 h
# Method: (§1) Cells were pulse-labeled with 10 μM BrdU for 2 h. Cells were fixed, and BrdU-labeled cells were identified with anti-BrdU-peroxidase (Roche Applied Science). BrdU incorporation was measured at 570 nm using a VersaMax ELISA microplate reader (Molecular Devices). At least three independent experiments with six technical replicates were analyzed, and average values are indicated.
# recombinant AR LBD = molecular target: T2, recombinant AR LBD (Rattus norvegicus, UniProt P15207); test: Fluorescence polarization competition assay (Androgen Receptor Competitor Assay); assay type: binding; settings: AR LBD 25 nM, 1 nM Fluormone AL Green; SINT1 and EPI-002 tested at 0.5–50 μM
# T2 construct: purchased Invitrogen
# T2 sequence (P15207 651-882 limits assumed): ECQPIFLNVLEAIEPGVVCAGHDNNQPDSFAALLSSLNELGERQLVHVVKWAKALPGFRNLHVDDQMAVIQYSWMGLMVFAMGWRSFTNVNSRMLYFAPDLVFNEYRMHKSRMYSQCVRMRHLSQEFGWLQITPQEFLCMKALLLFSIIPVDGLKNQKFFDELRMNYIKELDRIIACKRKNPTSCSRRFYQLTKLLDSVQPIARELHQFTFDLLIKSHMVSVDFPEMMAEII
# Method: The Androgen Receptor Competitor Assay (Green) kit (Invitrogen) was used. […] The reactions with serial dilutions of test compounds were completed in 40-μl aliquots in triplicates. Displacement of Fluormone AL Green from AR LBD by the test compounds was measured by the change in fluorescence polarization using Infinite® M1000 (Tecan) with excitation at 470 nm and emission at 535 nm.
# To determine whether the mechanism of action of SINT1 to inhibit androgen-induced AR transcriptional activity was mediated by binding to AR LBD, a fluorescence polarization competition assay was used. This assay uses recombinant AR LBD to reveal whether a test compound competes for ligand binding of Fluoromone that binds to this domain.
# LNCaP cells = test: Cell proliferation (BrdU incorporation), LNCaP; assay type: cell-based; settings: 0.1 nM R1881, 72 h
# Method: as §1
# AR-V567es = molecular target: T3, AR-V567es (Homo sapiens, UniProt P10275); test: Transcriptional activity of AR splice variant, PB-luciferase in COS-1 cells; assay type: cell-based; settings: for AR-V567es transcriptional activities (PB-luciferase): COS-1, 20 μM SINT1, 25 μM EPI-002
# T3 construct: expressed in transfected cells; host or cells: COS-1
# T3 sequence (P10275 with tags, fused parts or gaps limits assumed): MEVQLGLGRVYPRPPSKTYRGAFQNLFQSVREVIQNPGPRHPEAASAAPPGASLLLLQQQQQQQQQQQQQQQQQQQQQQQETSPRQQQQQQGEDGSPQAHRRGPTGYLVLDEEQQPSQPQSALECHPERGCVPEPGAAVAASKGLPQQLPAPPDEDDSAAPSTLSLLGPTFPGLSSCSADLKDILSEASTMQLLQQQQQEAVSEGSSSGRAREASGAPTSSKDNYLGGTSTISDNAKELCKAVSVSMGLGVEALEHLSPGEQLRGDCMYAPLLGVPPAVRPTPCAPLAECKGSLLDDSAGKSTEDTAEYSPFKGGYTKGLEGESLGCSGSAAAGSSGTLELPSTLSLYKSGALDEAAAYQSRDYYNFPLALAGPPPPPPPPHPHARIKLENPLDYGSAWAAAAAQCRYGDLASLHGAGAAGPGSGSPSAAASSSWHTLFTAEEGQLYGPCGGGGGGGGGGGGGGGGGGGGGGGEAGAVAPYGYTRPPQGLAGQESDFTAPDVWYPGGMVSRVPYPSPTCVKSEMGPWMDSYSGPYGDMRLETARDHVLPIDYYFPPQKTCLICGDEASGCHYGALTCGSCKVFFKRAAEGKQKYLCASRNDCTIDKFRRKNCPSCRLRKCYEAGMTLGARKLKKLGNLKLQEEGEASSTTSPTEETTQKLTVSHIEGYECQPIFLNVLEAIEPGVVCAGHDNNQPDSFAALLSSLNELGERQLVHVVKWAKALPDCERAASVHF
# Method: […]. Levels of expression of AR variant were determined by Western blotting using 10 μg of total protein extracted from same plates (3 wells per condition) using AR-N20 antibody (1:1000) and goat anti-rabbit HRP-conjugated secondary antibody (Santa Cruz Biotechnology; 1:10,000).
Structure (SMILES),IL-6-induced transactivation of AR NTD (AR NTD),forskolin-induced transactivation of AR NTD (AR NTD),proliferation of LNCaP95 cells (LNCaP95 cells),competition with Fluoromone for binding to AR LBD (recombinant AR LBD),androgen-induced proliferation of LNCaP cells (LNCaP cells),AR-V567es transcriptional activities (PB-luciferase) (AR-V567es),"levels of AR-V567es protein (AR-V567es; COS-1, Western blot)"
"CC(C)(c1ccc(OC[C@H](O)CO)cc1)c1ccc(OC[C@H](O)CCl)cc1 [EPI-002, reference compound]",potent inhibitor,significantly inhibited,inhibited,did not compete,inhibited,significantly inhibited,
"CCC(=O)NC(CC(C)C(Cl)(Cl)Cl)C(=O)N1C(=O)C=C(OC)C1CC(C)C(Cl)Cl (stereo not shown) [SINT1, Sintokamide A]",no significant effect,significantly inhibited,inhibited,did not compete,inhibited,significantly inhibited,not decreased

# Reference: PMC5064002, “Sintokamide A Is a Novel Antagonist of Androgen Receptor That Uniquely Binds Activation Function-1 in Its Amino-terminal Domain” (The Journal of Biological Chemistry, 2016)
